# Reference: patent US9192656B2, “Methods and compositions for the treatment of cancer” (QUINTESSENCE BIOSCIENCES, INC., priority 2006, dated 2015)
# Tests used:
# [1] = system: human prostate cancer cell line (DU145); test: In vivo inhibition of tumor growth, DU145 xenograft; parameters: species or system human tumor cells in nude mice; details: Example 4, Table 8, RNase 1 75 mg/kg 1×wk, docetaxel 8 mg/kg once a week
# Description: Cells from a non-small cell lung cancer cell line (A549) were grown in nine T175 flasks in F12K media and 10% fetal calf serum until the cells were confluent. 4.5×10^6 cells (in 100 microliters) were injected into the right rear flank of 4-5 week old male homozygous (nu/nu) nude mice (Harlan, Madison Wis.). Tumors were allowed to grow to an average size of ≧75 mm^3 before treatments were initiated. Animals of each tumor type, with the properly sized tumors, were divided into treatment groups, including one set of animals treated weekly with vehicle (phosphate buffered saline, PBS). The vehicle and the test agents were all administered by intraperitoneal injection. Each animal was weighed twice a week during treatment. The tumors were measured twice weekly using calipers. Tumor volume (mm^3) was determined by using the formula for an ellipsoid sphere: […]
# The percent tumor growth inhibition (% TGI) is calculated by: […]
# This xenograft model was set up as in the previous example except that a human prostate cancer cell line (DU145) was used. The efficacy of wild type human RNase 1 is shown relative to docetaxel. The RNase 1 was administered at 75 mg per kg of body weight of the animal (75 mg/kg 1×wk), while the docetaxel was used at 8 mg/kg once a week. The value of n represents the number of animals in the specific treatment arm of the experiment.
# The xenograft model of this example was set up as in the previous example except that a human prostate cancer cell line (DU145) was used. The efficacy of wild type human RNase 1 is shown. The RNase 1 was administered at 75 mg per kg of body weight of the animal once per week (75 mg/kg 1×wk). The value of n represents the number of animals in the specific treatment arm of the experiment.
# The xenograft model of this example was set up as in the previous example. The efficacy of wild type human RNase 1 is shown. The RNase 1 was administered at three different doses: (1) 15 mg per kg of body weight of the animal once per week (15 mg/kg 1×wk), (2) 75 mg/kg 1×wk, or (3) 300 mg/kg 1×wk. The value of n represents the number of animals in the specific treatment arm of the experiment.
# [2] = Clinical chemistry and complete blood count plus platelets (DU145 xenograft mice); format: in vivo
# Description: Clinical chemistry and a complete blood count (CBC) plus platelets were performed on whole blood and serum samples collected from the mice 24 hours after the last treatment of the prostate xenograft model above. […] Creatinine was also tested and found not to differ. The levels of the liver enzymes, gamma glutamyl transferase (GGT) and alanine transaminase (ALT) in all treatment groups were similar (GGT data not shown.). The values were determined for the various treatment groups of the prostate (DU145) xenograft study for clinical chemistry (A., B.), complete blood count (C., D.), and platelets (F.). Abbreviations: TCO2, amount of bicarbonate ion (HCO3^−); Anion Gap, [Na+K]—[Cl+HCO3]; ALT, alanine aminotransferase; WBC, white blood count; RBC, red blood count; HGB, hemoglobin; RBC HGB, (CHCM×RBC×MCV)/1000); MCH, mean corpuscular hemoglobin; MCHC, mean corpuscular hemoglobin concentration; RDW, red cell distribution width; MPV, mean platelet volume; HCT, hematocrit; MCV, mean corpuscular volume.
smiles,measurement,setting,value
"CC(=O)O[C@@]12CO[C@@H]1C[C@H](O)[C@@]1(C)C(=O)[C@H](O)C3=C(C)[C@@H](OC(=O)[C@H](O)[C@@H](NC(=O)OC(C)(C)C)c4ccccc4)C[C@@](O)([C@@H](OC(=O)c4ccccc4)[C@H]21)C3(C)C [Docetaxel, (2R,3S)-N-carboxy-3-phenylisoserine, N-tert-butyl ester, 13-ester with 5b-20-epoxy-12a,4,7b,10b,13a-hexahydroxytax-11-en-9-one 4-acetate 2-benzoate, trihydrate, reference compound]",% TGI,[1],92%
same,(Final − start),[1],180 mm^3
same,(Final − start)/Control,[1],0.08
same,Final volume,[1],249 mm^3
same,Starting volume,[1]; at start,60 mm^3
same,Creatinine versus vehicle,[2]; 24 hours after the last treatment,not to differ
same,"Clinical chemistry and complete blood count plus platelets, all tests, versus vehicle","[2]; whole blood and serum 24 hours after the last treatment, Mann-Whitney U test",not to be significantly different
